Reference: PMC10866072, “Design, synthesis, molecular modelling and biological evaluation of novel 6-amino-5-cyano-2-thiopyrimidine derivatives as potent anticancer agents against leukemia and apoptotic inducers” (Journal of Enzyme Inhibition and Medicinal Chemistry, 2024)

Legend:
A549/ATCC = type: cell-based; details: Homo sapiens, one dose 10^-5 M, 48 h
RPMI-8226 = type: cell-based; details: Homo sapiens, one dose 10^-5 M, 48 h
MDA-MB-468 = type: cell-based; details: Homo sapiens, one dose 10^-5 M, 48 h
HCT-116 = type: cell-based; details: Homo sapiens, one dose 10^-5 M, 48 h, read-out: % growth
RXF 393 = type: cell-based; details: Homo sapiens, RXF 393, 48 h, one dose 10^-5 M, 48 h, read-out: % growth
UO-31 = type: cell-based; details: Homo sapiens, UO-31, 48 h, one dose 10^-5 M, 48 h
NCI/ADR-RES = type: cell-based; details: Homo sapiens, one dose 10^-5 M, 48 h
SF-539 = type: cell-based; details: Homo sapiens, one dose 10^-5 M, 48 h
OVCAR-8 = type: cell-based; details: Homo sapiens, one dose 10^-5 M, 48 h
NCI-H226 = type: cell-based; details: Homo sapiens, one dose 10^-5 M, 48 h
SNB-19 = type: cell-based; details: Homo sapiens, one dose 10^-5 M, 48 h, read-out: % growth
MCF7 = type: cell-based; details: Homo sapiens, one dose 10^-5 M, 48 h, read-out: % growth
UACC-257 = type: cell-based; details: Homo sapiens, one dose 10^-5 M, 48 h
DU-145 = type: cell-based; details: Homo sapiens, one dose 10^-5 M, 48 h
MALME-3M = type: cell-based; details: Homo sapiens, one dose 10^-5 M, 48 h
IGROV1 = type: cell-based; details: Homo sapiens, IGROV-1, one dose 10^-5 M, 48 h, read-out: % growth
K-562 = type: cell-based; details: Homo sapiens, K562, one dose 10^-5 M, 48 h
TK-10 = type: cell-based; details: Homo sapiens, one dose 10^-5 M, 48 h
BT-549 = type: cell-based; details: Homo sapiens, one dose 10^-5 M, 48 h
KM12 = type: cell-based; details: Homo sapiens, one dose 10^-5 M, 48 h
MOLT-4 = type: cell-based; details: Homo sapiens, one dose 10^-5 M, 48 h, read-out: % growth
COLO 205 = type: cell-based; details: Homo sapiens, one dose 10^-5 M, 48 h
CCRF-CEM = type: cell-based; details: Homo sapiens, one dose 10^-5 M, 48 h
MDA-MB-231/ATCC = type: cell-based; details: Homo sapiens, one dose 10^-5 M, 48 h
SR = type: cell-based; details: Homo sapiens, one dose 10^-5 M, 48 h
HT29 = type: cell-based; details: Homo sapiens, HT-29, one dose 10^-5 M, 48 h
ACHN = type: cell-based; details: Homo sapiens, one dose 10^-5 M, 48 h
SK-MEL-28 = type: cell-based; details: Homo sapiens, one dose 10^-5 M, 48 h
HL-60(TB) = type: cell-based; details: Homo sapiens, one dose 10^-5 M, 48 h
NCI-H522 = type: cell-based; details: Homo sapiens, one dose 10^-5 M, 48 h
HOP-62 = type: cell-based; details: Homo sapiens, one dose 10^-5 M, 48 h
NCI-H23 = type: cell-based; details: Homo sapiens, one dose 10^-5 M, 48 h, read-out: % growth
SK-OV-3 = type: cell-based; details: Homo sapiens, one dose 10^-5 M, 48 h
EKVX = type: cell-based; details: Homo sapiens, one dose 10^-5 M, 48 h
M14 = type: cell-based; details: Homo sapiens, one dose 10^-5 M, 48 h
HS 578T = type: cell-based; details: Homo sapiens; one dose 10^-5 M, 48 h; HS 578T; read-out: % growth
SF-295 = type: cell-based; details: Homo sapiens, one dose 10^-5 M, 48 h
U251 = type: cell-based; details: Homo sapiens, U-251, one dose 10^-5 M, 48 h
CAKI-1 = type: cell-based; details: Homo sapiens, CAKI-1, 48 h, one dose 10^-5 M, 48 h
[1] = tested on: full NCI 60 cell lines panel
NCI-H460 = type: cell-based; details: Homo sapiens, one dose 10^-5 M, 48 h, read-out: % growth
MDA-MB-435 = type: cell-based; details: Homo sapiens, one dose 10^-5 M, 48 h, read-out: % growth
PC-3 = type: cell-based; details: Homo sapiens, one dose 10^-5 M, 48 h
T-47D = type: cell-based; details: Homo sapiens, T47D, one dose 10^-5 M, 48 h, read-out: % growth
786-0 = type: cell-based; details: Homo sapiens, one dose 10^-5 M, 48 h
HCC-2998 = type: cell-based; details: Homo sapiens, one dose 10^-5 M, 48 h
HOP-92 = type: cell-based; details: Homo sapiens, one dose 10^-5 M, 48 h
OVCAR-3 = type: cell-based; details: Homo sapiens, one dose 10^-5 M, 48 h
OVCAR-5 = type: cell-based; details: Homo sapiens, one dose 10^-5 M, 48 h
SN12C = type: cell-based, human; details: Homo sapiens, one dose 10^-5 M, 48 h
SK-MEL-2 = type: cell-based; details: Homo sapiens, one dose 10^-5 M, 48 h
LOX IMVI = type: cell-based; details: Homo sapiens, one dose 10^-5 M, 48 h, read-out: % growth
SF-268 = type: cell-based; details: Homo sapiens, one dose 10^-5 M, 48 h, read-out: % growth
A498 = type: cell-based; details: Homo sapiens, one dose 10^-5 M, 48 h
UACC-62 = type: cell-based; details: Homo sapiens, one dose 10^-5 M, 48 h
SK-MEL-5 = type: cell-based; details: Homo sapiens, one dose 10^-5 M, 48 h, read-out: % growth
OVCAR-4 = type: cell-based; details: Homo sapiens, one dose 10^-5 M, 48 h
HCT-15 = type: cell-based; details: Homo sapiens, one dose 10^-5 M, 48 h, read-out: % growth
SW-620 = type: cell-based; details: Homo sapiens, one dose 10^-5 M, 48 h

SMILES: N=C(NN=Cc1ccc(Cl)cc1)c1c(N)nc(S)nc1-c1ccc(Cl)cc1Cl [Compound 4n, 4-Amino-N'-[(4-chlorophenyl)methylene]-6–(2,4-dichlorophenyl)-2-mercapto pyrimidine-5-carboximidohydrazide]
- % growth at 10 µM (A549/ATCC): 95.8%
- % growth at 10 µM (RPMI-8226): 102%
- percent cell growth at 10 µM (MDA-MB-468): 96.1%
- activity at 10 µM (HCT-116): 94.6%
- activity at 10 µM (RXF 393): 84.7%
- % cell growth at 10 µM (UO-31): 93.2%
- cell growth percent at 10 µM (NCI/ADR-RES): 105%
- % growth at 10 µM (SF-539): 87.3%
- % growth of cells at 10 µM (OVCAR-8): 91.2%
- % growth at 10 µM (NCI-H226): 86.3%
- activity at 10 µM (SNB-19): 90.9%
- activity at 10 µM (MCF7): 83.6%
- percent cell growth at 10 µM (UACC-257): 108%
- % growth at 10 µM (DU-145): 109%
- % growth at 10 µM (MALME-3M): 81.6%
- activity at 10 µM (IGROV1): 97%
- % growth at 10 µM (K-562): 89.9%
- % cell growth at 10 µM (TK-10): 143%
- % cell growth at 10 µM (BT-549): 92.6%
- % growth at 10 µM (KM12): 108%
- activity at 10 µM (MOLT-4): 92.4%
- % growth at 10 µM (COLO 205): 114%
- % cell growth at 10 µM (CCRF-CEM): 106%
- % growth at 10 µM (MDA-MB-231/ATCC): 82.5%
- percent cell growth at 10 µM (SR): 90.6%
- % growth at 10 µM (HT29): 121%
- % growth at 10 µM (ACHN): 83.7%
- % cell growth at 10 µM (SK-MEL-28): 106%
- % growth at 10 µM (HL-60(TB)): 108%
- % growth at 10 µM (NCI-H522): 90.6%
- % growth at 10 µM (HOP-62): 83.1%
- activity at 10 µM (NCI-H23): 92.9%
- % growth at 10 µM (SK-OV-3): 92.2%
- % cell growth at 10 µM (EKVX): 108%
- % growth at 10 µM (M14): 95.6%
- activity at 10 µM (HS 578T): 102%
- % cell growth at 10 µM (SF-295): 73.4%
- % growth at 10 µM (U251): 70.5%
- % growth at 10 µM (CAKI-1): 98.6%
- activity at 10 µM ([1]; Homo sapiens, 60 cell, 48 h, read-out: Mean % growth): 97.2%
- activity on all 60 cancer cell lines tested (in words) ([1]; one dose): weak activity
- activity at 10 µM (NCI-H460): 102%
- activity at 10 µM (MDA-MB-435): 104%
- percent cell growth at 10 µM (PC-3): 102%
- activity at 10 µM (T-47D): 92.6%
- % growth at 10 µM (786-0): 78%
- % growth at 10 µM (HCC-2998): 101%
- % growth at 10 µM (HOP-92): 64.2%
- % growth at 10 µM (OVCAR-3): 110%
- percent cell growth at 10 µM (OVCAR-5): 105%
- % growth at 10 µM (SN12C): 90.1%
- % growth at 10 µM (SK-MEL-2): 108%
- activity at 10 µM (LOX IMVI): 95.4%
- activity at 10 µM (SF-268): 100%
- % growth at 10 µM (A498): 122%
- % growth at 10 µM (UACC-62): 90.9%
- activity at 10 µM (SK-MEL-5): 103%
- % growth at 10 µM (OVCAR-4): 107%
- activity at 10 µM (HCT-15): 101%
- % growth at 10 µM (SW-620): 106%
